In patent US7226923B2, “Phthalazinone derivatives” (Hoffman-La Roche Inc., priority 2004, dated 2007):

Columns and labels:
Aurora A = molecular target: T1, Aurora A (Homo sapiens, UniProt O14965); assay: IC50 determination for inhibitors of Aurora A (96 MTP-ELISA); assay type: biochemical; details: His4-tagged full-length Aurora A 250 ng/ml, PKB-GSK2 200 nM, ATP 4 μM, 90 min at room temperature, read-out: IC50 Aurora A kinase inhibition
T1 construct: C-terminally Histidine4 (His4)-tagged Aurora A full-length protein
T1 sequence (O14965 1-403): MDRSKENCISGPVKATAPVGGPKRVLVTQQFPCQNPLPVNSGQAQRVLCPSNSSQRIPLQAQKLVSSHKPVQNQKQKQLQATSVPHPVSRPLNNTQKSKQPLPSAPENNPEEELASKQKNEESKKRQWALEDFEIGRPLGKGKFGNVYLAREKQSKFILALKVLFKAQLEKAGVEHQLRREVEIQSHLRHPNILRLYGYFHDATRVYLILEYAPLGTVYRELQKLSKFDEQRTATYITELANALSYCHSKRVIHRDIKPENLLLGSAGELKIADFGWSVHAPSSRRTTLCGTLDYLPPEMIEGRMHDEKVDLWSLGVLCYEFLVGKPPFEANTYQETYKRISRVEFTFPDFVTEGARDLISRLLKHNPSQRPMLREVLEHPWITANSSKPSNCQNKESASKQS
Description: IC50 Determination for Inhibitors of Aurora A
• Aurora A is a serine threonine kinase involved in spindle assembly and chromosome segregation.
The assay is a typically ELISA-type assay where biotinylated substrate (PKB-GSK2) is phosphorylated. Phosphorylation is detected by peroxidase (POD) labelled polyclonal antibody (PAK<M-Ig>S-IgG-POD) and phosphopeptide monoclonal antibody (Mab) (MAK<P-GSK>M-27E5-IgG). The assay is validated for IC50-determination.
Method • This assay is performed in 96-well format for IC50 determination with 5 samples (each with 8 concentrations by twofold testing), 100 μl incubation volume and the following plate layout: […]

HCT 116 cells = assay: CellTiter-Glo assay in HCT 116 cells; assay type: cell-based, human; details: Homo sapiens, HCT-116, 120 h, 5 days incubation, 30 μM to 0.0015 μM
From the text: CellTiter-Glo™ Assay in HCT 116 Cells
The CellTiter-Glo™ Luminescent Cell Viability Assay (Promega) is a homogeneous method of determining the number of viable cells in culture based on quantitation of the ATP present, which signals the presence of metabolically active cells.
HCT 116 cells (human colon carcinoma, ATCC-No. CCl-247) were cultivated in RPMI 1640 medium with GlutaMAX™ I (Invitrogen, Cat-No. 61870-010), 2.5% Fetal Calf Serum (FCS, Sigma Cat-No. F4135 (FBS)); 100 Units/ml penicillin/100 μg/ml streptomycin (=Pen/Strep from Invitrogen Cat. No. 15140). For the assay the cells were seeded in 384 well plates, 1000 cells per well, in the same medium. The next day the test compounds were added in various concentrations ranging from 30 μM to 0.0015 μM (10 concentrations, 1:3 diluted). After 5 days the CellTiter-Glo™ assay was done according to the instructions of the manufacturer (CellTiter-Glo™ Luminescent Cell Viability Assay, from Promega). In brief: the cell-plate was equilibrated to room temperature for approximately 30 minutes and than the CellTiter-Glo™ reagent was added. The contents were carefully mixed for 15 minutes to induce cell lysis. After 45 minutes the luminescent signal was measured in Victor 2, (scanning multiwell spectrophotometer, Wallac).
1st. Day: • Medium: RPMI 1640 with GlutaMAX™ I (Invitrogen, Cat-Nr. 61870), 5% FCS (Sigma Cat.-No. F4135), Pen/Strep (Invitrogen, Cat No. 15140). • HCT116 (ATCC-No. CCl-247): 1000 cells in 60 μl per well of 384 well plate (Greiner 781098, μClear-plate white) • After seeding incubate plates 24 h at 37° C., 5% CO2
2nd. Day: Induction (Treatment with Compounds, 10 Concentrations):
In order to achieve a final concentration of 30 μM as highest concentration 3.5 μl of 10 mM compound stock solution were added directly to 163 μl media. Then step e) of the dilution procedure described below, was followed.

| SMILES | IC50 (Aurora A) | IC50 (HCT 116 cells) |
| --- | --- | --- |
| Cc1cc(Nc2nn(C(C)C)c(=O)c3cc(CO)ccc23)n[nH]1 [Example M-9, 7-Hydroxymethyl-2-isopropyl-4-(5-methyl-1H-pyrazol-3-ylamino)-2H-phthalazin-1-one] | 1 to 100 nM | 100 to 10000 nM |
| Cc1cc(Nc2nn(C(C)C)c(=O)c3c(N4CCOCC4)cccc23)n[nH]1 [Example F-3, 2-Isopropyl-4-(5-methyl-1H-pyrazol-3-ylamino)-8-morpholino-2H-phthalazin-1-one] | 1 to 100 nM | 100 to 10000 nM |
| CC(=O)Nc1ccc(Cn2nc(Nc3cc(C)[nH]n3)c3ccccc3c2=O)cc1 [Example D-1, N-{4-[4-(5-Methyl-1H-pyrazol-3-ylamino)-1-oxo-1H-phthalazin-2-ylmethyl]-phenyl}-acetamide] | 1 to 100 nM | 4190 nM |
| Cc1cc(Nc2nn(C(C)C)c(=O)c3cc(N(C)C(=O)NC(C)C)ccc23)n[nH]1 [Example I-6, 3-Isopropyl-1-[3-isopropyl-1-(5-methyl-1H-pyrazol-3-ylamino)-4-oxo-3,4-dihydro-phthalazin-6-yl]-1-methyl-urea] | 1 to 100 nM | 100 to 10000 nM |
| Cc1cc(Nc2nn(-c3ccc(C(C)(C)C)cc3)c(=O)c3cc(NC=O)ccc23)[nH]n1 [Example ZB-1, N-[3-(4-tert-Butyl-phenyl)-1-(5-methyl-2H-pyrazol-3-ylamino)-4-oxo-3,4-dihydro-phthalazin-6-yl]-formamide] | 1 to 100 nM | 100 to 10000 nM |
| Cc1cc(Nc2nn(Cc3ccc(F)cc3)c(=O)c3ccccc23)n[nH]1 [Example A-20, 2-(4-Fluoro-benzyl)-4-(5-methyl-1H-pyrazol-3-ylamino)-2H-phthalazin-1-one] | 1 to 100 nM | 100 to 10000 nM |
| COc1cccc(C(=O)Cn2nc(Nc3cc(C)[nH]n3)c3ccccc3c2=O)c1 [Example E-5, 2-[2-(3-Methoxy-phenyl)-2-oxo-ethyl]-4-(5-methyl-1H-pyrazol-3-ylamino)-2H-phthalazin-1-one] | 1 to 100 nM | 100 to 10000 nM |
| Cc1cc(Nc2nn(-c3ccc(C(C)(C)C)cc3)c(=O)c3cc([N+](=O)[O-])ccc23)[nH]n1 [Example ZB-3, 2-(4-tert-Butyl-phenyl)-4-(5-methyl-2H-pyrazol-3-ylamino)-7-nitro-2H-phthalazin-1-one] | 1 to 100 nM | 100 to 10000 nM |
| Cc1cc(Nc2nn(Cc3csc(C)n3)c(=O)c3ccccc23)n[nH]1 [Example A-16, 4-(5-Methyl-1H-pyrazol-3-ylamino)-2-(2-methyl-thiazol-4-ylmethyl)-2H-phthalazin-1-one] | 100 to 1000 nM | 100 to 10000 nM |

Second part, the compound after the results:

| IC50 (Aurora A) | IC50 (HCT 116 cells) | SMILES |
| --- | --- | --- |
| 1 to 100 nM | 10000 to 100000 nM | Cc1cc(Nc2nn(-c3ccc([N+](=O)[O-])cc3)c(=O)c3ccccc23)n[nH]1 [Example W-3, 4-(5-Methyl-1H-pyrazol-3-ylamino)-2-(4-nitro-phenyl)-2H-phthalazin-1-one] |
| 1 to 100 nM | 100 to 10000 nM | Cc1cc(Nc2nn(-c3ccc(S(=O)(=O)C(C)(C)C)cc3)c(=O)c3ccccc23)n[nH]1 [Example ZA-1, 2-[4-(2-Methyl-propane-2-sulfonyl)-phenyl]-4-(5-methyl-1H-pyrazol-3-ylamino)-2H-phthalazin-1-one] |
| 100 to 1000 nM | 100 to 10000 nM | Cc1cc(Nc2nn(Cc3ccc([N+](=O)[O-])cc3)c(=O)c3ccccc23)n[nH]1 [Example B-3, 4-(5-Methyl-1H-pyrazol-3-ylamino)-2-(4-nitro-benzyl)-2H-phthalazin-1-one] |
| 100 to 1000 nM | 100 to 10000 nM | Cc1cc(Nc2nn(-c3ccccc3)c(=O)c3ccc(N)cc23)n[nH]1 [Example Z-1, 6-Amino-4-(5-methyl-1H-pyrazol-3-ylamino)-2-phenyl-2H-phthalazin-1-one] |
| 100 to 1000 nM | 100 to 10000 nM | Cc1cc(Nc2nn(-c3ccc(NC(=O)c4ccccc4)cc3)c(=O)c3ccccc23)n[nH]1 [Example T-4, N-{4-[4-(5-Methyl-1H-pyrazol-3-ylamino)-1-oxo-1H-phthalazin-2-yl]-phenyl}-benzamide] |
